Laboratory results reported in patent US20230219965A1 (KSQ Therapeutics, Inc., priority 2020, published 2023).
Like-named read-outs stand apart in the source and are kept apart here.

What was measured:
[1] = Liver microsomal metabolic stability, human liver microsomes (HLM); conditions: human, liver microsomes
[2] = ADME solubility determination in PBS at pH 2.0 and pH 7.4; assay type: physicochemical; conditions: phosphate buffered saline, 25 °C, thermodynamic from solid
How it was run: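 Solubility was read by LC-MS/MS on centrifuged supernatants, calibrated to a known-concentration standard and corrected for dilution. Compound, dried down from 10 mM DMSO stock, was equilibrated 24 h at 25° C with shaking in PBS at pH 2.0 or pH 7.4.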

[3] = molecular target: USP1/UAF1 enzyme (Homo sapiens, UniProt O94782); assay: USP1/UAF1 deubiquitination assay (ubiquitin-rhodamine 110 substrate); assay type: biochemical; conditions: read-out: USP1 IC50 (Ub-Rho)
Sequence of USP1/UAF1 enzyme (O94782 whole entry): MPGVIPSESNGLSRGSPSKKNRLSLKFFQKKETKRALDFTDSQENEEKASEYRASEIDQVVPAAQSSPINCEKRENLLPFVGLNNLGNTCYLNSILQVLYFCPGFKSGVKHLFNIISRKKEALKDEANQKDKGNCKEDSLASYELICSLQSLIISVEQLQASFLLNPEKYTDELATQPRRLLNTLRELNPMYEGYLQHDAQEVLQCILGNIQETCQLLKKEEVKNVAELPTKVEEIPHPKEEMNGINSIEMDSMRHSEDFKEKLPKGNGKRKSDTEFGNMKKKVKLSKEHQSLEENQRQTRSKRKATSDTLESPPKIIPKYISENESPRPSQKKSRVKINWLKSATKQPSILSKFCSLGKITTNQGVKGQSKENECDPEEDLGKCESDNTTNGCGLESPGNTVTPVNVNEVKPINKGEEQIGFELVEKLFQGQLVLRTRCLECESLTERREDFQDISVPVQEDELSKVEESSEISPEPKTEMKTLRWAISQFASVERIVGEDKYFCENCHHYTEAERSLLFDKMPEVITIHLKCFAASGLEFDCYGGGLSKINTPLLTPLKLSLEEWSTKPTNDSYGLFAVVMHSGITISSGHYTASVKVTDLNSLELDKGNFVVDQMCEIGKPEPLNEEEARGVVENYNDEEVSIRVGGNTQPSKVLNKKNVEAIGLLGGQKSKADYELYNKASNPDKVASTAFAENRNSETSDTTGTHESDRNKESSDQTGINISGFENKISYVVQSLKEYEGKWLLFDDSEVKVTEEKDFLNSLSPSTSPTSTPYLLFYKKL
Sequence of USP1/UAF1 enzyme (Q8TAF3 whole entry partner): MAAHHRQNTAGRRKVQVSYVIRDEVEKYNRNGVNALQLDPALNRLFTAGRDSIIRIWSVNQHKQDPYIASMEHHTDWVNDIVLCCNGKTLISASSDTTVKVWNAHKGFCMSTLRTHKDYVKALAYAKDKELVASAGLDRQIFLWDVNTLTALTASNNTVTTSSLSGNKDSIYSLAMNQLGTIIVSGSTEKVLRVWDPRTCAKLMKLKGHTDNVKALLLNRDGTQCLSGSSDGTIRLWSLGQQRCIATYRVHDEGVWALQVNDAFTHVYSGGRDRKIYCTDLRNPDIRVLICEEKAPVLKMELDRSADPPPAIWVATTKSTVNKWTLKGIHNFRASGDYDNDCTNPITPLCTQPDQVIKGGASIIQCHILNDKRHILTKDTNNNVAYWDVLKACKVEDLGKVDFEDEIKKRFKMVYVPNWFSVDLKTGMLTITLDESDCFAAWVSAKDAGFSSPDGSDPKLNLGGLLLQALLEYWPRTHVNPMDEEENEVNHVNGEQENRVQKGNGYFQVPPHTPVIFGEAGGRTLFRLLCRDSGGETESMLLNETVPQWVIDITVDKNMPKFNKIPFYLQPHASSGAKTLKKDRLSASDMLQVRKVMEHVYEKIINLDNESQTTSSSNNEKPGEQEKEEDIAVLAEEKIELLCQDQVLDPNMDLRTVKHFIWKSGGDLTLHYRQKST
How it was run: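 Cleavage of 150 nM ubiquitin-rhodamine 110 by 0.05 nM USP1/UAF1 was followed as fluorescence (Ex480/Em540, kinetic, 30 min) in Tris-HCl pH 7.8 buffer with EDTA, BSA, DTT and Tween-20. Compounds, top 10 μM, were preincubated with enzyme 10 min; % inhibition against no-enzyme and DMSO wells gave four-parameter IC50s.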

[4] = Liver microsomal metabolic stability, rat liver microsomes (RLM); conditions: rat, liver microsomes, t1/2 (min) in RLM, 1 μM compound, 1 mg/mL microsomes, NADPH
[5] = tested on: Ub-PCNA levels in the nucleus of ES2 cells (USP1 activity); assay: ES2 Ub-PCNA immunofluorescence (IF) assay; assay type: cell-based; conditions: Homo sapiens, ES-2; ES2 cells, 3 hours, Ub-PCNA immunofluorescence; read-out: USP1 IC50 (Ub-PCNA)
Procedure: USP1 is a deubiquitinating enzyme that removes ubiquitin from mono-ubiquitinated Proliferating Cell Nuclear Antigen (Ub-PCNA). The levels of Ub-PCNA in the nucleus of cells can be used to assess the activity of USP1. An immunofluorescence assay can be established to monitor Ub-PCNA levels in the ovarian cancer cell line, ES2.
An assay can be performed by first plating 5000 ES2 cells per well in black 96 well plates (Corning #3904) and then incubating overnight at 37° C. and 5% CO2. Compounds, resuspended in DMSO, can be added to the cells, to a final DMSO concentration of 0.3%. Plates can be incubated at 37° C. and 5% CO2 for 3 hours.
Cells can be then fixed and stained by first removing the media from each plate and fixing the cells with −20° C. methanol for 5 minutes at room temperature. Fixation plates can be washed with Tris buffered saline with tween (Boston Bioproducts #IBB-855) 5 times for 5 minutes each. Plates can be blocked for 1 hour with 50 μl of Odyssey blocking buffer (Licor #327-50000) at room temperature with rocking. Block can be removed from all wells and 50 μl of primary antibody was added to each well. Ub-PCNA ab (Cell Signaling Technology #13439) can be diluted at 1:400 in Odyssey blocking buffer. Plates can be sealed and incubated overnight at 4° C. Primary antibodies can be removed from the plates and plates can be washed with Tris buffered saline with tween 5 times for 5 minutes. Plates can be stained for 1 hour at room temperature with rocking with 50 μl of secondary antibodies diluted 1:10,000 in Odyssey blocking buffer at room temperature (anti-rabbit Alexa 488). Antibodies can be removed from the plates and plates can be washed with Tris buffered saline with tween 3 times for 5 minutes. Plates can be washed once with DAPI (Chemometec #910-3012) stain diluted 1:5000 (Stock solution of 500 μg/ml) in tris buffered saline with tween for 5 minutes. DAPI stain can be removed and plates can be washed one additional time for 5 minutes with tris buffered saline with tween. Wash can be removed from the plate and 100 μl tris buffered saline with tween can be added back to all wells, Plates can be sealed with Foil seals or black plate seals and plates can be stored at 4° C. until they can be imaged.
Imaging of the plates can be performed by first locating the nuclei using the DAPI stain. A mask can be created by drawing a circle slightly smaller than each nucleus. Ub-PCNA intensities can be measured for each individual nucleus counted. A histogram of all Ub-PCNA nuclear intensities measured in untreated wells can be generated and a 95% cutoff can be established. This 95% cutoff can be used to determine the number of Positive cells that have Ub-PCNA values higher than the 95% cutoff. The number of positive cells can be expressed as a percentage by dividing by the total number of cells in the well. This percent positive value can be used to graph all data and to determine AC50 values.
USP1 is a deubiquitinating enzyme that removes ubiquitin from mono-ubiquitinated
Proliferating Cell Nuclear Antigen (Ub-PCNA). The levels of Ub-PCNA in the nucleus of cells was used to assess the activity of USP1. An immunofluorescence assay was established to monitor Ub-PCNA levels in the ovarian cancer cell line, ES2.
This assay was performed by first plating 5000 ES2 cells per well in black 96 well plates (Corning #3904) and then incubated overnight at 37° C. and 5% CO2. Compounds, resuspended in DMSO, were added to the cells, to a final DMSO concentration of 0.3%. Plates were incubated at 37° C. and 5% CO2 for 3 hours.
Cells were then fixed and stained by first removing the media from each plate and fixing the cells with −20° C. methanol for 5 minutes at room temperature. Following fixation plates were washed with Tris buffered saline with tween (Boston Bioproducts ABB-855) 5 times for 5 minutes each. Plates were blocked for 1 hour with 50μ.1 of Odyssey blocking buffer (Licor #327-50000) at room temperature with rocking. […]

[6] = pH 2, aqueous buffer, PBS pH 2.0, 25° C., read-out: Solubility at pH 2.0
[7] = pH 7.4, aqueous buffer, PBS pH 7.4, 25° C., read-out: Solubility at pH 7.4

Compound: COc1ncnc(C2CC2)c1-c1cc2n(n1)CCC(=O)N2Cc1ccc(-c2nc(C(F)(F)F)cn2C)cc1 [Example 1, 2-(4-cyclopropyl-6-methoxypyrimidin-5-yl)-4-(4-(1-methyl-4-(trifluoromethyl)-1H-imidazol-2-yl)benzyl)-6,7-dihydropyrazolo[1,5-α]pyrimidin-5(4H)-one]
- half-life at 1 μM [1]: > 25 min
- solubility at 24 h [2, 6]: ≥ 10 µM
- solubility at 24 h [2, 7]: < 10 µM
- IC50 [3]: < 100 nM
- half-life at 1 μM [4]: > 25 min
- IC50 [5]: 100 to 500 nM

Compound: COc1ncnc(C2CC2)c1-c1cc2n(n1)CCC(=O)N2Cc1ccc(-c2nc(C(F)(F)F)cn2C)c(F)c1 [Example 2, 2-(4-cyclopropyl-6-methoxypyrimidin-5-yl)-4-(3-fluoro-4-(1-methyl-4-(trifluoromethyl)-1H-imidazol-2-yl)benzyl)-6,7-dihydropyrazolo[1,5-a]pyrimidin-5(4H)-one]
- half-life at 1 μM [1]: > 25 min
- solubility at 24 h [2, 6]: < 10 µM
- solubility at 24 h [2, 7]: < 10 µM
- IC50 [3]: < 100 nM
- half-life at 1 μM [4]: > 25 min
- IC50 [5]: 100 to 500 nM

Compound: Cc1cnn(C(C)C)c1-c1cc2n(n1)CCC(=O)N2Cc1ccc(-c2nc(C(F)(F)F)cn2C)cc1 [Example 6, 2-(1-isopropyl-4-methyl-1H-pyrazol-5-yl)-4-(4-(1-methyl-4-(trifluoromethyl)-1H-imidazol-2-yl)benzyl)-6,7-dihydropyrazolo[1,5-a]pyrimidin-5(4H)-one]
- half-life at 1 μM [1]: < 25 min
- solubility at 24 h [2, 6]: ≥ 10 µM
- solubility at 24 h [2, 7]: ≥ 10 µM
- IC50 [3]: < 100 nM
- half-life at 1 μM [4]: < 25 min
- IC50 [5]: > 500 nM

Compound: COc1ncnc(C2CC2)c1-c1cc2n(n1)CCC(=O)N2Cc1ccc(-n2nc(C(F)(F)F)cc2OC)c(F)c1 [Example 7, 2-(4-cyclopropyl-6-methoxypyrimidin-5-yl)-4-(3-fluoro-4-(5-methoxy-3-(trifluoromethyl)-1H-pyrazol-1-yl)benzyl)-6,7-dihydropyrazolo[1,5-a]pyrimidin-5(4H)-one]
- half-life at 1 μM [1]: > 25 min
- solubility at 24 h [2, 6]: < 10 µM
- solubility at 24 h [2, 7]: < 10 µM
- IC50 [3]: < 100 nM
- half-life at 1 μM [4]: > 25 min
- IC50 [5]: 100 to 500 nM

Compound: CCn1cc(C(F)(F)F)nc1-c1ccc(CN2C(=O)CCn3nc(-c4c(C)cnn4C(C)C)cc32)cc1 [Example 9, 4-(4-(1-ethyl-4-(trifluoromethyl)-1H-imidazol-2-yl)benzyl)-2-(1-isopropyl-4-methyl-1H-pyrazol-5-yl)-6,7-dihydropyrazolo[1,5-a]pyrimidin-5(4H)-one]
- half-life at 1 μM [1]: < 25 min
- solubility at 24 h [2, 6]: ≥ 10 µM
- solubility at 24 h [2, 7]: ≥ 10 µM
- IC50 [3]: < 100 nM
- half-life at 1 μM [4]: < 25 min
- IC50 [5]: < 100 nM

Compound: Cc1cnn(C(C)C)c1-c1cc2n(n1)CCC(=O)N2Cc1ccc(-n2nc(C(F)(F)F)cc2C)cc1 [Example 10, 2-(1-isopropyl-4-methyl-1H-pyrazol-5-yl)-4-(4-(5-methyl-3-(trifluoromethyl)-1H-pyrazol-1-yl)benzyl)-6,7-dihydropyrazolo[1,5-a]pyrimidin-5(4H)-one]
- half-life at 1 μM [1]: < 25 min
- solubility at 24 h [2, 6]: < 10 µM
- solubility at 24 h [2, 7]: < 10 µM
- IC50 [3]: < 100 nM
- half-life at 1 μM [4]: < 25 min
- IC50 [5]: 100 to 500 nM

Compound: Cc1cnn(C(C)C)c1-c1cc2n(n1)CCC(=O)N2Cc1ccc(-c2nc(C(F)(F)F)nn2C)cc1 [Example 11, 2-(1-isopropyl-4-methyl-1H-pyrazol-5-yl)-4-(4-(1-methyl-3-(trifluoromethyl)-1H-1,2,4-triazol-5-yl)benzyl)-6,7-dihydropyrazolo[1,5-a]pyrimidin-5(4H)-one]
- half-life at 1 μM [1]: < 25 min
- solubility at 24 h [2, 6]: ≥ 10 µM
- solubility at 24 h [2, 7]: < 10 µM
- IC50 [3]: > 500 nM
- half-life at 1 μM [4]: < 25 min
- IC50 [5]: > 500 nM

Compound: COc1cc(C(F)(F)F)nn1-c1ccc(CN2C(=O)CCn3nc(-c4c(C)cnn4C(C)C)cc32)cc1F [Example 12, 4-(3-fluoro-4-(5-methoxy-3-(trifluoromethyl)-1H-pyrazol-1-yl)benzyl)-2-(1-isopropyl-4-methyl-1H-pyrazol-5-yl)-6,7-dihydropyrazolo[1,5-a]pyrimidin-5(4H)-one]
- half-life at 1 μM [1]: < 25 min
- solubility at 24 h [2, 6]: < 10 µM
- solubility at 24 h [2, 7]: < 10 µM
- IC50 [3]: < 100 nM
- half-life at 1 μM [4]: < 25 min
- IC50 [5]: 100 to 500 nM

Compound: COc1cc(C(F)(F)F)nn1-c1ccc(CN2C(=O)CCn3nc(-c4c(Cl)cnn4C(C)C)cc32)cc1F [Example 14, 2-(4-chloro-1-isopropyl-1H-pyrazol-5-yl)-4-(3-fluoro-4-(5-methoxy-3-(trifluoromethyl)-1H-pyrazol-1-yl)benzyl)-6,7-dihydropyrazolo[1,5-a]pyrimidin-5(4H)-one]
- half-life at 1 μM [1]: > 25 min
- solubility at 24 h [2, 6]: < 10 µM
- solubility at 24 h [2, 7]: < 10 µM
- IC50 [3]: < 100 nM
- half-life at 1 μM [4]: > 25 min
- IC50 [5]: < 100 nM

Compound: CC(C)n1ncc(Cl)c1-c1cc2n(n1)CCC(=O)N2Cc1ccc(-c2nc(C(F)(F)F)cn2C)c(F)c1 [Example 16, 2-(4-chloro-1-isopropyl-1H-pyrazol-5-yl)-4-(3-fluoro-4-(1-methyl-4-(trifluoromethyl)-1H-imidazol-2-yl)benzyl)-6,7-dihydropyrazolo[1,5-a]pyrimidin-5(4H)-one]
- half-life at 1 μM [1]: > 25 min
- solubility at 24 h [2, 6]: < 10 µM
- solubility at 24 h [2, 7]: < 10 µM
- IC50 [3]: < 100 nM
- half-life at 1 μM [4]: < 25 min
- IC50 [5]: < 100 nM

Compound: COc1ncnc(C2CC2)c1-c1cc2n(n1)CCC(=O)N2Cc1ccc(-c2nc(C(F)(F)F)cn2C(C)C)c(F)c1 [Example 18, 2-(4-cyclopropyl-6-methoxypyrimidin-5-yl)-4-(3-fluoro-4-(1-isopropyl-4-(trifluoromethyl)-1H-imidazol-2-yl)benzyl)-6,7-dihydropyrazolo[1,5-a]pyrimidin-5(4H)-one]
- half-life at 1 μM [1]: > 25 min
- solubility at 24 h [2, 6]: < 10 µM
- solubility at 24 h [2, 7]: < 10 µM
- IC50 [3]: < 100 nM
- half-life at 1 μM [4]: > 25 min
- IC50 [5]: < 100 nM

Compound: CC(C)n1cc(C(F)(F)F)nc1-c1ccc(CN2C(=O)CCn3nc(-c4c(Cl)cnn4C(C)C)cc32)cc1F [Example 20, 2-(4-chloro-1-isopropyl-1H-pyrazol-5-yl)-4-(3-fluoro-4-(1-isopropyl-4-(trifluoromethyl)-1H-imidazol-2-yl)benzyl)-6,7-dihydropyrazolo[1,5-a]pyrimidin-5(4H)-one]
- half-life at 1 μM [1]: > 25 min
- solubility at 24 h [2, 6]: < 10 µM
- solubility at 24 h [2, 7]: < 10 µM
- IC50 [3]: < 100 nM
- half-life at 1 μM [4]: > 25 min
- IC50 [5]: < 100 nM
